From patent publication US9493438B2, “4,4-difluoro-piperidine-compounds” (ROTTAPHARM BIOTECH S.R.L., priority 2012, dated 2016)

Key:
human OX1 receptors = target: T1, human OX1 receptors (Homo sapiens, UniProt O43613); test: antagonistic activity against human OX1 receptor, [Ca2+]i fluorimetry in transfected CHO cells; format: cell-based; conditions: CHO cells transfected with human recombinant OX1; activated with orexin-A 3 nM; pKb = co-logarithm of apparent dissociation constant (modified Cheng Prusoff)
T1 construct: expressed in transfected cells; host or cells: CHO cells
T1 sequence (O43613 1-425): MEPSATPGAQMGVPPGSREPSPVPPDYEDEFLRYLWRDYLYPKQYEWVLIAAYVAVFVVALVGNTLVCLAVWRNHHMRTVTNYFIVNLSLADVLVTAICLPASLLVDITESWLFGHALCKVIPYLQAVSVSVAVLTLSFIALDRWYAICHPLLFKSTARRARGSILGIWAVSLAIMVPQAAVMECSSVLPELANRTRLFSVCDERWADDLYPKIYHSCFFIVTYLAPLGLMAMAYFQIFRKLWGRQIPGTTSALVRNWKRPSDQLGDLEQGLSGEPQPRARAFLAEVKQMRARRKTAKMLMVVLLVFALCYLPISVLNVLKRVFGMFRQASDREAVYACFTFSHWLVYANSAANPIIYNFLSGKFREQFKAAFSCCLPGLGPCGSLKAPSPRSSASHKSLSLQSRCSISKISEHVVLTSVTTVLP
Description: (§1) Thus the plate was loaded with the calcium dye (Fluo-4NW/probenecid in HBSS, Hepes 20 mM, pH 7.4; Invitrogen) at 37° C. for 60 min. Afterward the temperature was equilibrated at 22° C. for 15 min and the [Ca2+]i measured directly on the plate by using a fluorescent plate reader (CeliLux Perkin Elmer).
(§2) Invention compounds were dissolved in DMSO, diluted in HBSS (DMSO, 0.3% final) and added to the wells. After 5 min CHO cells were activated with orexin-A, 3 nM while HEK-293 cells were activated with orexin-B, 10 nM. […] The antagonistic activity has been expressed as pKb (co-logarithm of the apparent dissociation constant calculated by using the modified Cheng Prusoff equation). The results are expressed as percent of control specific […] response ((measured specific response/control specific agonist response)×100) obtained in the presence of the test compounds.
(§3) The IC50 values (concentration causing a half-maximal inhibition of the control specific agonist response) were determinated by non-linear regression analysis of the concentration curves generated with mean replicate values using hill equation curve fitting. The IC50 values are obtained by the arithmetical mean of at least two experiments.

human OX2 receptors = target: T2, human OX2 receptors (Homo sapiens, UniProt O43614); test: antagonistic activity against human OX2 receptor, [Ca2+]i fluorimetry in transfected HEK-293 cells; format: cell-based; conditions: read-out: PKb OX2 (converted)
T2 construct: expressed in transfected cells; host or cells: HEK-293 cells
T2 sequence (O43614 1-444): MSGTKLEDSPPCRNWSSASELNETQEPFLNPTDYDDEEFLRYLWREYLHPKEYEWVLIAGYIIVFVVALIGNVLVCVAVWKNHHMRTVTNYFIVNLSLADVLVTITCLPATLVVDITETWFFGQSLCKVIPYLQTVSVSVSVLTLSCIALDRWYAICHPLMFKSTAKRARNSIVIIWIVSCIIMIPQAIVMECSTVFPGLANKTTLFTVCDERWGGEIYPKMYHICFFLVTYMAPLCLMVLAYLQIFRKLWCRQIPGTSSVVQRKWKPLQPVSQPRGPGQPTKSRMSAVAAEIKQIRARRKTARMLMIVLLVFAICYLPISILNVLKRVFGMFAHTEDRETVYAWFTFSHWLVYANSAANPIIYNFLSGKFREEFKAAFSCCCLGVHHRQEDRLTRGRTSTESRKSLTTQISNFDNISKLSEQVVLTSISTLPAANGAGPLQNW
Description: as §1, §2, §3

SMILES	Kb (human OX1 receptors) [nM]	Kb (human OX2 receptors) [µM]
O=C(c1cccc2cccnc12)N1CCC(F)(F)CC1CNc1ccc(Cl)cn1 (single isomer, unassigned; isomer a) [Compound 26, (2-(((5-chloropyridin-2-yl)amino)methyl)-4,4-difluoropiperidin-1-yl)(quinolin-8-yl)methanone (isomer A)]	1.58	10
COc1ccc(OC)c(C(=O)N2CCC(F)(F)CC2CNc2ccc(Cl)cn2)c1 (racemic) [Compound 11, (RS)(2-(((5-chloropyridin-2-yl)amino)methyl)-4,4-difluoropiperidin-1-yl)(2,5-dimethoxyphenyl)methanone]	7.94	10
Cc1ccc(-c2ccccc2)c(C(=O)N2CCC(F)(F)CC2CNc2ccc(C(F)(F)F)cn2)n1 (racemic) [Compound 36, (RS)(4,4-difluoro-2-(((5-(trifluoromethyl)pyridin-2-yl)amino)methyl)piperidin-1-yl)(6-methyl-3-phenylpyridin-2-yl)methanone]	3.16	10
Cc1ccc(-n2nccn2)c(C(=O)N2CCC(F)(F)CC2CNc2ccc(C(F)(F)F)cn2)c1 (racemic) [Compound 5, (RS)(4,4-difluoro-2-(((5-(trifluoromethyl)pyridin-2-yl)amino)methyl)piperidin-1-yl)(5-methyl-2-(2H-1,2,3-triazol-2-yl)phenyl)methanone]	5.01	–
O=C(c1ccccc1OCC1CC1)N1CCC(F)(F)CC1CNc1ccc(Cl)cn1 (racemic) [Compound 12, (RS)(2-(((5-chloropyridin-2-yl)amino)methyl)-4,4-difluoropiperidin-1-yl)(2-(cyclopropylmethoxy)phenyl)methanone]	2	–
Cc1ccc(-c2ncccn2)c(C(=O)N2CCC(F)(F)CC2COc2ccc(C(F)(F)F)cn2)n1 (racemic) [Compound 48, (±)(4,4-difluoro-2-(((5-(trifluoromethyl)pyridine-2-yl)oxy)methyl)piperidin-1-yl)(6-methyl-3-(pyrimidin-2-yl)pyridin-2-yl)methanone]	7.94	–
O=C(c1nccc2ccccc12)N1CCC(F)(F)CC1CNc1ccc(C(F)(F)F)cn1 (racemic) [Compound 34, (RS)(4,4-difluoro-2-(((5-(trifluoromethyl)pyridin-2-yl)amino)methyl)piperidin-1-yl)(isoquinolin-1-yl)methanone]	2.51	–
Cc1ccc(-c2ncccn2)c(C(=O)N2CCC(F)(F)CC2CNc2ccc(Cl)cn2)n1 (racemic) [Compound 14, (RS)(2-(((5-chloropyridin-2-yl)amino)methyl)-4,4-difluoropiperidin-1-yl)(6-methyl-3-(pyrimidin-2-yl)pyridin-2-yl)methanone]	2.51	–
Cc1ccc(-c2ncccn2)c(C(=O)N2CCC(F)(F)CC2CNc2ccc(Cl)cn2)c1 (single isomer, unassigned; isomer a) [Compound 7, (2-(((5-chloropyridin-2-yl)amino)methyl)-4,4-difluoropiperidin-1-yl)(5-methyl-2-(pyrimidin-2-yl)phenyl)methanone (isomer A)]	2.51	–
Cc1ncc(-c2ccc(F)cc2C(=O)N2CCC(F)(F)CC2CNc2ccc(C(F)(F)F)cn2)cn1 (racemic) [Compound 30, (RS)(4,4-difluoro-2-(((5-(trifluoromethyl)pyridin-2-yl)amino)methyl)piperidin-1-yl)(5-fluoro-2-(2-methylpyrimidin-5-yl)phenyl)methanone]	25.1	–
O=C(c1ccccc1OCc1ccccc1)N1CCC(F)(F)CC1CNc1ccc(Cl)cn1 (racemic) [Compound 21, (RS)(2-(benzyloxy)phenyl)(2-(((5-chloropyridin-2-yl)amino)methyl)-4,4-difluoropiperidin-1-yl)methanone]	5.01	–
Cc1ccc(-c2ccncc2)c(C(=O)N2CCC(F)(F)CC2CNc2ccc(C(F)(F)F)cn2)n1 (racemic) [Compound 52, (RS) (4,4-difluoro-2-(((5-(trifluoromethyl)pyridin-2-yl)amino)methyl)piperidin-1-yl)(6-methyl-[3,4′-bipyridin]-2-yl)methanone]	39.8	–
Cc1ccc(-c2ncccn2)c(C(=O)N2CCC(F)(F)CC2CNc2ccc(Cl)cn2)n1 (single isomer, unassigned; isomer b) [Compound 17, (2-(((5-chloropyridin-2-yl)amino)methyl)-4,4-difluoropiperidin-1-yl)(6-methyl-3-(pyrimidin-2-yl)pyridin-2-yl)methanone (isomer B)]	100	–
O=C(c1nc(C(F)(F)F)ccc1-c1ncccn1)N1CCC(F)(F)CC1CNc1ccc(C(F)(F)F)cn1 (single isomer, unassigned; isomer a) [Compound 40, (4,4-difluoro-2-(((5-(trifluoromethyl)pyridin-2-yl)amino)methyl)piperidin-1-yl)(3-(pyrimidin-2-yl)-6-(trifluoromethyl)pyridin-2-yl)methanone (isomer A)]	63.1	–

Now from value to molecule:

Kb (human OX1 receptors) [nM]	Kb (human OX2 receptors) [µM]	SMILES
1.58	10	O=C(c1nccc2ccccc12)N1CCC(F)(F)CC1CNc1ccc(C(F)(F)F)cn1 (single isomer, unassigned; isomer a) [Compound 41, (4,4-difluoro-2-(((5-(trifluoromethyl)pyridin-2-yl)amino)methyl)piperidin-1-yl)(isoquinolin-1-yl)methanone (isomer A)]
15.8	10	Cc1ccc(OCC2CC2)c(C(=O)N2CCC(F)(F)C[C@H]2CNc2ccc(C(F)(F)F)cn2)n1 [Compound 46, (S)(3-(cyclopropylmethoxy)-6-methylpyridin-2-yl)(4,4-difluoro-2-(((5-(trifluoromethyl)pyridin-2-yl)amino)methyl)piperidin-1-yl)methanone]
10	–	Cc1nc(C(=O)N2CCC(F)(F)CC2CNc2ccc(Cl)cn2)c(-c2ccccc2)s1 (racemic) [Compound 1, (RS)(2-(((5-chloropyridin-2-yl)amino)methyl)-4,4-difluoropiperidin-1-yl)(2-methyl-5-phenylthiazol-4-yl)methanone]
3.16	–	O=C(c1ncccc1-c1ncccn1)N1CCC(F)(F)CC1CNc1ccc(C(F)(F)F)cn1 (racemic) [Compound 54, (RS) (4,4-difluoro-2-(((5-(trifluoromethyl)pyridin-2-yl)amino)methyl)piperidin-1-yl)(3-(pyrimidin-2-yl)pyridin-2-yl)methanone]
15.8	–	O=C(c1ccncc1-c1ncccn1)N1CCC(F)(F)CC1CNc1ccc(Cl)cn1 (racemic) [Compound 28, (RS)(2-(((5-chloropyridin-2-yl)amino)methyl)-4,4-difluoropiperidin-1-yl)(3-(pyrimidin-2-yl)pyridin-4-yl)methanone]
5.01	–	Cc1ccc(-c2ncccn2)c(C(=O)N2CCC(F)(F)CC2CNc2ccc(Cl)cn2)c1 (racemic) [Compound 6, (RS)(2-(((5-chloropyridin-2-yl)amino)methyl)-4,4-difluoropiperidin-1-yl)(5-methyl-2-(pyrimidin-2-yl)phenyl)methanone]
15.8	–	Cc1ccc(-n2nccn2)c(C(=O)N2CCC(F)(F)CC2CNc2ccc(Cl)cn2)n1 (single isomer, unassigned; isomer b) [Compound 9, (2-(((5-chloropyridin-2-yl)amino)methyl)-4,4-difluoropiperidin-1-yl)(6-methyl-3-(2H-1,2,3-triazol-2-yl)pyridin-2-yl)methanone (isomer B)]
